Experimental data as given in patent publication US10035804B2, “Spirodiamine derivatives as aldosterone synthase inhibitors” (Hoffmann-La Roche Inc., priority 2014, dated 2018).

Columns and labels:
[1] = molecular target: human CYP11B1 (Homo sapiens (Human), UniProt P15538); assay: G-402 cellular enzyme assay, human CYP11B1 (cortisol release); type: cell-based; conditions: G-402 cells expressing human CYP11B1; 1 μM Deoxycortisol; cortisol in supernatant after 16 h
Text: (§1) Herein we identified the use of the G-402 cell line as a host cell to ectopically express (transiently or stably) enzymes of the CYP11 family. Specifically we developed stable G-402 cells expressing ectopically human CYP11B1, human CYP11B2, human CYP11A1, cynmolgus CYP11B1 or cynomolgus CYP11B2 enzyme activity. Importantly the identified cell line G-402 expresses co-factors (adrenodoxin and adrenodoxin reductase) important for the activity of the CYP11 family and no relevant enzyme activity of the CYP11 family (in comparison to H295R cells) was detected in these cells. Therefore the G-402 cell line is uniquely suited as a host cell for the ectopic expression of enzymes from the CYP11 family.
(§2) G-402 cells can be obtained from ATCC (CRL-1440) and were originally derived from a renal leiomyoblastoma.
(§3) The expression plasmids contains the ORF for either human/cyno CYP11B1 or CYP11B2 under the control of a suitable promoter (CMV-promoter) and a suitable resistance marker (neomycin). Using standard techniques the expression plasmid is transfected into G-402 cells and these cells are then selected for expressing the given resistance markers. Individual cell-clones are then selected and assessed for displaying the desired enzymatic activity using 11-Deoxycorticosterone (Cyp11B2) or 11-Deoxycortisol (Cyp11B1) as a substrate.
(§4) G-402 cells expressing CYP11 constructs were established as described above and maintained in McCoy's 5a Medium Modified, ATCC Catalog No. 30-2007 containing 10% FCS and 400 μg/ml G418 (Geneticin) at 37° C. under an atmosphere of 5% CO2/95% air. Cellular enzyme assays were performed in DMEM/F12 medium containing 2.5% charcoal treated FCS and appropriate concentration of substrate (0.3-10 uM 11-Deoxycorticosterone, 11-Deoxycortisol or Corticosterone). For assaying enzymatic activity, cells were plated onto 96 well plates and incubated for 16 h. An aliquot of the supernatant is then transferred and analyzed for the concentration of the expected product (Aldosterone for CYP11B2; Cortisol for CYP11B1). The concentrations of these steroids can be determined using HTRF assays from CisBio analyzing either Aldosterone or Cortisol.
(§5) Inhibition of the release of produced steroids can be used as a measure of the respective enzyme inhibition by test compounds added during the cellular enzyme assay. The dose dependent inhibition of enzymatic activity by a compound is calculated by means of plotting added inhibitor concentrations (x-axes) vs. measured steroid/product level (y-axes). The inhibition is then calculated by fitting the following 4-parameter sigmoidal function (Morgan-Mercer-Flodin (MMF) model) to the raw data points using the least squares method:
(§6) [formula] wherein, A is the maximum y value, B is the EC50 factor determined using XLFit, C is the minimum y value and D is the slope value.
(§7) EC50 values for compounds claimed herein were tested with the G402-based assay system described. Cyp11B2 enzyme activity was tested in presence of 1 μM Deoxycorticosterone and variable amounts of inhibitors; Cyp11B1 enzyme activity was tested in presence of 1 μM Deoxycortisol and variable amounts of inhibitors.

[2] = molecular target: human CYP11B2 (Homo sapiens (Human), UniProt P19099); assay: G-402 cellular enzyme assay, human CYP11B2 (aldosterone release); type: cell-based; conditions: G-402 cells expressing human CYP11B2; 1 μM Deoxycorticosterone; aldosterone in supernatant after 16 h
Text: as §1, §2, §3, §4, §5, §6, §7

Chain of human CYP11B2 (P19099 25-503): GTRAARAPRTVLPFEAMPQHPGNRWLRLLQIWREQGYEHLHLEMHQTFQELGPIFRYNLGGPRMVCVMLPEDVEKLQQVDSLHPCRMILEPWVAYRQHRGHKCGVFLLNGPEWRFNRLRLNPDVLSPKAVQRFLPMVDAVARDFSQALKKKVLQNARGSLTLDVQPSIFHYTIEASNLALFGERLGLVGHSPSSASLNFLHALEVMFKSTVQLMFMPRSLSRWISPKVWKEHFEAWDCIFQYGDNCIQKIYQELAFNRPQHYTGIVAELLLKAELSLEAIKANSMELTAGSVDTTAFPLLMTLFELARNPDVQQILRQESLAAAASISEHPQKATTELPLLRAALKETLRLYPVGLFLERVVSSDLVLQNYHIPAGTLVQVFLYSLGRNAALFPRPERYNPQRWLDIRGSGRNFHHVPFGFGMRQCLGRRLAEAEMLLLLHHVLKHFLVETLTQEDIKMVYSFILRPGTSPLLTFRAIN
Chain of human CYP11B1 (P15538 25-503): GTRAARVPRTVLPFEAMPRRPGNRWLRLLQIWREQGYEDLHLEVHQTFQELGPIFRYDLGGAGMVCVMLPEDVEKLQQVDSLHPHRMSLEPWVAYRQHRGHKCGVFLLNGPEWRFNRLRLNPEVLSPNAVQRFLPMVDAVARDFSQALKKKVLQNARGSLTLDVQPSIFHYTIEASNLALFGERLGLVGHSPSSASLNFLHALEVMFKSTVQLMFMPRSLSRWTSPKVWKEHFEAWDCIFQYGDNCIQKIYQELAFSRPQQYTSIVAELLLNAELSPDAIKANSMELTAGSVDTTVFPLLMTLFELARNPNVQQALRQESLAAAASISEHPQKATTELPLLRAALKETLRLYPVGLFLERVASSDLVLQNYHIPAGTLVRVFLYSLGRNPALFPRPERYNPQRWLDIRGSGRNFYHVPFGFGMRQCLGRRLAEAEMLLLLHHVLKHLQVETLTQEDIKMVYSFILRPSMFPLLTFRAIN

## Cc1cc(C(=O)N2CC3(C2)CN(c2cncc(N4C(=O)c5ccc(Cl)cc5C4(C)C)c2)C3)n(C)n1 [Example 31, 5-Chloro-2-[5-[2-(2,5-dimethylpyrazole-3-carbonyl)-2,6-diazaspiro[3.3]heptan-6-yl]-3-pyridyl]-3,3-dimethyl-isoindolin-1-one]
[1]
  EC50: 6.43 nM
[2]
  EC50: 0.154 nM

## Cc1ccnc(C)c1C(=O)N1CC2(C1)CN(c1cncc(N3C(=O)c4ccc(Cl)cc4C3(C)C)c1)C2 [Example 49, 5-Chloro-2-[5-[2-(2,4-dimethylpyridine-3-carbonyl)-2,6-diazaspiro[3.3]heptan-6-yl]-3-pyridyl]-3,3-dimethyl-isoindolin-1-one]
[1]
  EC50: 5.07 nM
[2]
  EC50: 0.111 nM

## Cn1cc(C(=O)N2CC3(C2)CN(c2cncc(N4C(=O)c5ccc(Cl)cc5C45CC5)c2)C3)cn1 [Example 19, 5′-Chloro-2′-[5-[2-(1-methylpyrazole-4-carbonyl)-2,6-diazaspiro[3.3]heptan-6-yl]-3-pyridyl]spiro[cyclopropane-1,3′-isoindoline]-1′-one]
[1]
  EC50: 7.69 nM
[2]
  EC50: 0.0029 nM

## Cn1nccc1C(=O)N1CC2(C1)CN(c1cncc(N3C(=O)c4ccc(Cl)cc4C34CC4)c1)C2 [Example 21, 5′-Chloro-2′-[5-[2-(2-methylpyrazole-3-carbonyl)-2,6-diazaspiro[3.3]heptan-6-yl]-3-pyridyl]spiro[cyclopropane-1,3′-isoindoline]-1′-one]
[1]
  EC50: > 30 nM
[2]
  EC50: 0.293 nM

## CCn1cc(C(=O)N2CC3(C2)CN(c2cncc(N4C(=O)c5ccc(Cl)cc5C4(C)C)c2)C3)cn1 [Example 2, 5-Chloro-2-[5-[2-(1-ethylpyrazole-4-carbonyl)-2,6-diazaspiro[3.3]heptan-6-yl]-3-pyridyl]-3,3-dimethyl-isoindolin-1-one]
[1]
  EC50: 11.1 nM
[2]
  EC50: 0.003 nM

## Cn1nccc1C(=O)N1CC2(C1)CN(c1cncc(N3C(=O)c4ccc(Cl)cc4C3(C)C)c1)C2 [Example 5, 5-Chloro-3,3-dimethyl-2-[5-[2-(2-methylpyrazole-3-carbonyl)-2,6-diazaspiro[3.3]heptan-6-yl]-3-pyridyl]isoindolin-1-one]
[1]
  EC50: 15.7 nM
[2]
  EC50: 0.145 nM

## CC1(C)c2cc(Cl)ccc2C(=O)N1c1cncc(N2CC3(CN(C(=O)c4ncccc4C#N)C3)C2)c1 [Example 46, 2-[6-[5-(6-Chloro-1,1-dimethyl-3-oxo-isoindolin-2-yl)-3-pyridyl]-2,6-diazaspiro[3.3]heptane-2-carbonyl]pyridine-3-carbonitrile]
[1]
  EC50: 3.86 nM
[2]
  EC50: 0.0383 nM

## Cc1ncoc1C(=O)N1CC2(C1)CN(c1cncc(N3C(=O)c4ccc(Cl)cc4C3(C)C)c1)C2 [Example 41, 5-Chloro-3,3-dimethyl-2-[5-[2-(4-methyloxazole-5-carbonyl)-2,6-diazaspiro[3.3]heptan-6-yl]-3-pyridyl]isoindolin-1-one]
[1]
  EC50: 28.4 nM
[2]
  EC50: 0.109 nM

## Cc1nc(C(=O)N2CC3(C2)CN(c2cncc(N4C(=O)c5ccc(Cl)cc5C4(C)C)c2)C3)co1 [Example 45, 5-Chloro-3,3-dimethyl-2-[5-[2-(2-methyloxazole-4-carbonyl)-2,6-diazaspiro[3.3]heptan-6-yl]-3-pyridyl]isoindolin-1-one]
[1]
  EC50: 2.09 nM
[2]
  EC50: 0.068 nM

## Cc1ccncc1C(=O)N1CC2(CCN(c3cncc(N4C(=O)c5ccc(Cl)cc5C4(C)C)c3)CC2)C1 [Example 61, 5-Chloro-3,3-dimethyl-2-[5-[2-(4-methylpyridine-3-carbonyl)-2,7-diazaspiro[3.5]nonan-7-yl]-3-pyridyl]isoindolin-1-one]
[1]
  EC50: 2.11 nM

## Cc1nocc1C(=O)N1CC2(C1)CN(c1cncc(N3C(=O)c4ccc(Cl)cc4C3(C)C)c1)C2 [Example 27, 5-Chloro-3,3-dimethyl-2-[5-[2-(3-methylisoxazole-4-carbonyl)-2,6-diazaspiro[3.3]heptan-6-yl]-3-pyridyl]isoindolin-1-one]
[1]
  EC50: 14 nM
[2]
  EC50: 0.104 nM

## Cn1cc(C(=O)N2CC3(CCN(c4cncc(N5C(=O)c6ccc(Cl)cc6C5(C)C)c4)CC3)C2)cn1 [Example 59, 5-Chloro-3,3-dimethyl-2-[5-[2-(1-methylpyrazole-4-carbonyl)-2,7-diazaspiro[3.5]nonan-7-yl]-3-pyridyl]isoindolin-1-one]
[1]
  EC50: 0.819 nM

## CC1(C)c2cc(Cl)ccc2C(=O)N1c1cncc(N2CC3(CN(C(=O)c4ncccn4)C3)C2)c1 [Example 33, 5-Chloro-3,3-dimethyl-2-[5-[2-(pyrimidine-2-carbonyl)-2,6-diazaspiro[3.3]heptan-6-yl]-3-pyridyl]isoindolin-1-one]
[1]
  EC50: 1.75 nM
[2]
  EC50: 0.0497 nM

## Cn1cc(C(=O)N2CC3(C2)CN(c2cncc(N4CCc5cc(Cl)ccc5C4=O)c2)C3)cn1 [Example 53, 6-Chloro-2-[5-[2-(1-methylpyrazole-4-carbonyl)-2,6-diazaspiro[3.3]heptan-6-yl]-3-pyridyl]-3,4-dihydroisoquinolin-1-one]
[1]
  EC50: 14.6 nM
[2]
  EC50: 0.0459 nM

## COc1ccc2c(n1)C(C)(C)N(c1cncc(N3CC4(CN(C(=O)c5cnn(C)c5)C4)C3)c1)C2=O [Example 15, 2-Methoxy-7,7-dimethyl-6-[5-[2-(1-methylpyrazole-4-carbonyl)-2,6-diazaspiro[3.3]heptan-6-yl]-3-pyridyl]pyrrolo[3,4-b]pyridin-5-one]
[1]
  EC50: 18.9 nM
[2]
  EC50: 0.0205 nM

## CC1(C)c2cc(Cl)ccc2C(=O)N1c1cncc(N2CC3(CN(C(=O)c4cocn4)C3)C2)c1 [Example 42, 5-Chloro-3,3-dimethyl-2-[5-[2-(oxazole-4-carbonyl)-2,6-diazaspiro[3.3]heptan-6-yl]-3-pyridyl]isoindolin-1-one]
[1]
  EC50: 1.05 nM
[2]
  EC50: 0.0102 nM

## CCn1cc(C(=O)N2CC3(C2)CN(c2cncc(N4C(=O)c5ccc(C#N)cc5C4(C)C)c2)C3)cn1 [Example 9, 2-[5-[2-(1-Ethylpyrazole-4-carbonyl)-2,6-diazaspiro[3.3]heptan-6-yl]-3-pyridyl]-3,3-dimethyl-1-oxo-isoindoline-5-carbonitrile]
[1]
  EC50: 24.4 nM
[2]
  EC50: 0.009 nM

## Cc1c(C(=O)N2CC3(C2)CN(c2cncc(N4C(=O)c5ccc(Cl)cc5C4(C)C)c2)C3)cnn1C [Example 26, 5-Chloro-2-[5-[2-(1,5-dimethylpyrazole-4-carbonyl)-2,6-diazaspiro[3.3]heptan-6-yl]-3-pyridyl]-3,3-dimethyl-isoindolin-1-one]
[1]
  EC50: 35.5 nM
[2]
  EC50: 0.0775 nM

## Cn1cc(C(=O)N2CC3(C2)CN(c2cncc(N4C(=O)c5ccc(Cl)cc5C4(C)C)c2)C3)cn1 [Example 1, 5-Chloro-3,3-dimethyl-2-[5-[2-(1-methylpyrazole-4-carbonyl)-2,6-diazaspiro[3.3]-heptan-6-yl]-3-pyridyl]isoindolin-1-one]
[1]
  EC50: 11.3 nM
[2]
  EC50: 0.002 nM

## CC1(C)c2cc(Cl)ccc2C(=O)N1c1cncc(N2CC3(CN(C(=O)c4cncnc4)C3)C2)c1 [Example 40, 5-Chloro-3,3-dimethyl-2-[5-[2-(pyrimidine-5-carbonyl)-2,6-diazaspiro[3.3]heptan-6-yl]-3-pyridyl]isoindolin-1-one]
[1]
  EC50: 12 nM
[2]
  EC50: 0.0542 nM

## CCn1cc(C(=O)N2CC3(CCN(c4cncc(N5C(=O)c6ccc(Cl)cc6C5(C)C)c4)CC3)C2)cn1 [Example 60, 5-Chloro-2-[5-[2-(1-ethylpyrazole-4-carbonyl)-2,7-diazaspiro[3.5]nonan-7-yl]-3-pyridyl]-3,3-dimethyl-isoindolin-1-one]
[1]
  EC50: 0.892 nM

## Cn1cc(C(=O)N2CCC3(CC2)CN(c2cncc(N4C(=O)c5ccc(Cl)cc5C4(C)C)c2)C3)cn1 [Example 56, 5-Chloro-3,3-dimethyl-2-[5-[7-(1-methylpyrazole-4-carbonyl)-2,7-diazaspiro[3.5]nonan-2-yl]-3-pyridyl]isoindolin-1-one]
[1]
  EC50: 18.8 nM

## CCn1cc(C(=O)N2CCC3(CC2)CN(c2cncc(N4C(=O)c5ccc(Cl)cc5C4(C)C)c2)C3)cn1 [Example 58, 5-Chloro-2-[5-[7-(1-ethylpyrazole-4-carbonyl)-2,7-diazaspiro[3.5]nonan-2-yl]-3-pyridyl]-3,3-dimethyl-isoindolin-1-one]
[1]
  EC50: 9.64 nM
